Data taken from US20050282743A1, “Molecular interactions in cells” (Arbor Vita Corporation, priority 2001, published 2005).
Peptide text beside a SMILES is read from it. * marks the point of attachment. Biotin = O=C1N[C@H]2[C@H](CS[C@H]2CCCCC(=O)*)N1

Legend:
Assay in all cases: G' assay (10 uM PL peptide), results of TABLE 7 and TABLE 12
Assay type in all cases: binding
[1] = target: T1, PDZ protein (GST-PDZ fusion) (Homo sapiens, UniProt O75970)
T1 construct: made in house; host or cells: E. coli (DH5alpha, BL21 or JM109)
T1 sequence (O75970 whole entry, the tested form may be a part): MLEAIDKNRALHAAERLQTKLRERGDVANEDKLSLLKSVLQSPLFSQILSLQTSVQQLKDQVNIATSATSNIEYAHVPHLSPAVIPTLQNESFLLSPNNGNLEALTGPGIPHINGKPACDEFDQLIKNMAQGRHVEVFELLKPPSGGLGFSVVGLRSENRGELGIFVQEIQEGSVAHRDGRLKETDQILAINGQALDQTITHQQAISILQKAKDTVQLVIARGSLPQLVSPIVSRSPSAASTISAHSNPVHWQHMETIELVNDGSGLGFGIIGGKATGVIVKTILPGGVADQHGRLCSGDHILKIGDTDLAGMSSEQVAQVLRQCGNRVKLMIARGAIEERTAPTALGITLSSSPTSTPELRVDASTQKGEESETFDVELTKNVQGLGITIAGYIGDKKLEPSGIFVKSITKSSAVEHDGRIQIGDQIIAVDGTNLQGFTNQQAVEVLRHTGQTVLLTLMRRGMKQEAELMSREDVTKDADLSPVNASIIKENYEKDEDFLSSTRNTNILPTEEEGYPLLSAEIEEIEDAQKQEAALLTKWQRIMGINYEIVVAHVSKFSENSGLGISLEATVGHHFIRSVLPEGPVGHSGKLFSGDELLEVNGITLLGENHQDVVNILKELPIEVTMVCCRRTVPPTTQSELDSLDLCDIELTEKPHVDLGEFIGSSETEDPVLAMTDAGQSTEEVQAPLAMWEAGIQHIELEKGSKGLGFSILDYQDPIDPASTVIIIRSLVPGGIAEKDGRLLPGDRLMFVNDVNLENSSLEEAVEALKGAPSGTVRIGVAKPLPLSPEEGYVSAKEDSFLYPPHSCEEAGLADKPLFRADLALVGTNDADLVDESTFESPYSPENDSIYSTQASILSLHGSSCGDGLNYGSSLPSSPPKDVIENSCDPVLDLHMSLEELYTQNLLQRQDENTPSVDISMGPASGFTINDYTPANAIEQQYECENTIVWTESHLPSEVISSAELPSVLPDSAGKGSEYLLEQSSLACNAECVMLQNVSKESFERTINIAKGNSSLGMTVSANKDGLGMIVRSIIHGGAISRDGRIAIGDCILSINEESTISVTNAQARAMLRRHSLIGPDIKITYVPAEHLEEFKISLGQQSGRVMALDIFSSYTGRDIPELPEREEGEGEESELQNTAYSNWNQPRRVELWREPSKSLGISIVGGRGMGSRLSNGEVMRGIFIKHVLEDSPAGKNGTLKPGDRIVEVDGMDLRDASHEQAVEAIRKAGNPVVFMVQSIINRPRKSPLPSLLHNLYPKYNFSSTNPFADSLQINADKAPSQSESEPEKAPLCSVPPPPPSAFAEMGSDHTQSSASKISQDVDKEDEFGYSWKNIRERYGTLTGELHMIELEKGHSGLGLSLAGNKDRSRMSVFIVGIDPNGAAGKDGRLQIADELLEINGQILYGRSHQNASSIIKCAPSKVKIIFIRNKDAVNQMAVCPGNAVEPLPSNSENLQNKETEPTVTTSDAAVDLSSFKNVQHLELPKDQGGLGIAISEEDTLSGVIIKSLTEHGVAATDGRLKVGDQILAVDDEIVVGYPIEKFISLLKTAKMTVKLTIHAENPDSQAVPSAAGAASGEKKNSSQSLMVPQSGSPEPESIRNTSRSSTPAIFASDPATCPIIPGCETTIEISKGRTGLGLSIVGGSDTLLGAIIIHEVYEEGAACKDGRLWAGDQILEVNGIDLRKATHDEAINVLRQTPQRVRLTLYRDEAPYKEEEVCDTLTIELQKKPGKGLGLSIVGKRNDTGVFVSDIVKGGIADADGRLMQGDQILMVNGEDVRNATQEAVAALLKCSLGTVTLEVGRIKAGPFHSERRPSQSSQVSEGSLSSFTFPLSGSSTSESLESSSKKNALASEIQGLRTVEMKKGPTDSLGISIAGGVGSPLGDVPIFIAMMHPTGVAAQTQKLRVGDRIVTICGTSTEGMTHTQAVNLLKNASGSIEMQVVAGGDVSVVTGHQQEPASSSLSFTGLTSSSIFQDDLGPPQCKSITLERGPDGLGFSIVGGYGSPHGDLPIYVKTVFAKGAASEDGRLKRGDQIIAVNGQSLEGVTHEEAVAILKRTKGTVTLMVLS
Procedure, shortened: (§1)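 Binding classes derive from A450 nm of bound biotin-tagged PL peptide. A score of 5 needs A450 above 4 in more than two repeats.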

[2] = target: T2, PDZ protein (GST-PDZ fusion) (Homo sapiens, UniProt Q5TCQ9)
T2 construct: made in house; host or cells: E. coli (DH5alpha, BL21 or JM109)
T2 sequence (Q5TCQ9 1-1481): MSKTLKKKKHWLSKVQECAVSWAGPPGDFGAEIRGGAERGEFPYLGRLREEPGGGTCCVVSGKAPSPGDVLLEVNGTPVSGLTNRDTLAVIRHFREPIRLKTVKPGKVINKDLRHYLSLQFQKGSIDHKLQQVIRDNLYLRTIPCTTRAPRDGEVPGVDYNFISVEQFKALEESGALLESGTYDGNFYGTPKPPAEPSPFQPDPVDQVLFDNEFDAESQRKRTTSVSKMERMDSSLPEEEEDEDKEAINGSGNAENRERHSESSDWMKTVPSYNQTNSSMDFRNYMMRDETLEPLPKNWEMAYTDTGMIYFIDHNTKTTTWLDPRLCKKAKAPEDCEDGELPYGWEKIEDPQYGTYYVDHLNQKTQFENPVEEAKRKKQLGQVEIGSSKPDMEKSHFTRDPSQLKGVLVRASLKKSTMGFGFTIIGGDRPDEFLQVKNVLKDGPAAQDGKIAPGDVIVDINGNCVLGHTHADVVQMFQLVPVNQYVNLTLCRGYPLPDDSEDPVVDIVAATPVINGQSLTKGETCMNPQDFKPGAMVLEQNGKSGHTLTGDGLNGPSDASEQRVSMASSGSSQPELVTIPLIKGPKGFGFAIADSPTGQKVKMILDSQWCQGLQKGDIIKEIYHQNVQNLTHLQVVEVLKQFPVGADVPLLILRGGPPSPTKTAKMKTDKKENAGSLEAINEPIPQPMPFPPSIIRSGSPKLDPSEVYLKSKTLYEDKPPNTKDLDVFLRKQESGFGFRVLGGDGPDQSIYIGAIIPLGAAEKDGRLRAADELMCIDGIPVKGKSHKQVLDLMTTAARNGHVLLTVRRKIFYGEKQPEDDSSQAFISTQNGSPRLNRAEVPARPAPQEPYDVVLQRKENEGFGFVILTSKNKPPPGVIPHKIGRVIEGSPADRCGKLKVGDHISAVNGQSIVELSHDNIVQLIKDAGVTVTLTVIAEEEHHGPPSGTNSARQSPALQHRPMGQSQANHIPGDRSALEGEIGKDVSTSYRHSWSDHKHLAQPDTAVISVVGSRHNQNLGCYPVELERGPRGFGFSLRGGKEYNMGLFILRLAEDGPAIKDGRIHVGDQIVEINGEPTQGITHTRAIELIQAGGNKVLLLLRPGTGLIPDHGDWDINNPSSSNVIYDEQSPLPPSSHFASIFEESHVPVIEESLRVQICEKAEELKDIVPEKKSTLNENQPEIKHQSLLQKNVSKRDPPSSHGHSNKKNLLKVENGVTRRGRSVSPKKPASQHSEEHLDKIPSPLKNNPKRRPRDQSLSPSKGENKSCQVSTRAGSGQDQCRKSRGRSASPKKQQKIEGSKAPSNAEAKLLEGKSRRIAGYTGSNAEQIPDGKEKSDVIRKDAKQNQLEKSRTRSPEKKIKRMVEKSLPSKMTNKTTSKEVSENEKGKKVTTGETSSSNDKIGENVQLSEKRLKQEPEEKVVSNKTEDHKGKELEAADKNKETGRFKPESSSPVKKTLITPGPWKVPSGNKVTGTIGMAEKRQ
Procedure, shortened: as §1

[3] = target: T3, PDZ protein (GST-PDZ fusion) (Homo sapiens, UniProt Q6P0Q8)
T3 construct: made in house; host or cells: E. coli (DH5alpha, BL21 or JM109)
T3 sequence (Q6P0Q8 whole entry, the tested form may be a part): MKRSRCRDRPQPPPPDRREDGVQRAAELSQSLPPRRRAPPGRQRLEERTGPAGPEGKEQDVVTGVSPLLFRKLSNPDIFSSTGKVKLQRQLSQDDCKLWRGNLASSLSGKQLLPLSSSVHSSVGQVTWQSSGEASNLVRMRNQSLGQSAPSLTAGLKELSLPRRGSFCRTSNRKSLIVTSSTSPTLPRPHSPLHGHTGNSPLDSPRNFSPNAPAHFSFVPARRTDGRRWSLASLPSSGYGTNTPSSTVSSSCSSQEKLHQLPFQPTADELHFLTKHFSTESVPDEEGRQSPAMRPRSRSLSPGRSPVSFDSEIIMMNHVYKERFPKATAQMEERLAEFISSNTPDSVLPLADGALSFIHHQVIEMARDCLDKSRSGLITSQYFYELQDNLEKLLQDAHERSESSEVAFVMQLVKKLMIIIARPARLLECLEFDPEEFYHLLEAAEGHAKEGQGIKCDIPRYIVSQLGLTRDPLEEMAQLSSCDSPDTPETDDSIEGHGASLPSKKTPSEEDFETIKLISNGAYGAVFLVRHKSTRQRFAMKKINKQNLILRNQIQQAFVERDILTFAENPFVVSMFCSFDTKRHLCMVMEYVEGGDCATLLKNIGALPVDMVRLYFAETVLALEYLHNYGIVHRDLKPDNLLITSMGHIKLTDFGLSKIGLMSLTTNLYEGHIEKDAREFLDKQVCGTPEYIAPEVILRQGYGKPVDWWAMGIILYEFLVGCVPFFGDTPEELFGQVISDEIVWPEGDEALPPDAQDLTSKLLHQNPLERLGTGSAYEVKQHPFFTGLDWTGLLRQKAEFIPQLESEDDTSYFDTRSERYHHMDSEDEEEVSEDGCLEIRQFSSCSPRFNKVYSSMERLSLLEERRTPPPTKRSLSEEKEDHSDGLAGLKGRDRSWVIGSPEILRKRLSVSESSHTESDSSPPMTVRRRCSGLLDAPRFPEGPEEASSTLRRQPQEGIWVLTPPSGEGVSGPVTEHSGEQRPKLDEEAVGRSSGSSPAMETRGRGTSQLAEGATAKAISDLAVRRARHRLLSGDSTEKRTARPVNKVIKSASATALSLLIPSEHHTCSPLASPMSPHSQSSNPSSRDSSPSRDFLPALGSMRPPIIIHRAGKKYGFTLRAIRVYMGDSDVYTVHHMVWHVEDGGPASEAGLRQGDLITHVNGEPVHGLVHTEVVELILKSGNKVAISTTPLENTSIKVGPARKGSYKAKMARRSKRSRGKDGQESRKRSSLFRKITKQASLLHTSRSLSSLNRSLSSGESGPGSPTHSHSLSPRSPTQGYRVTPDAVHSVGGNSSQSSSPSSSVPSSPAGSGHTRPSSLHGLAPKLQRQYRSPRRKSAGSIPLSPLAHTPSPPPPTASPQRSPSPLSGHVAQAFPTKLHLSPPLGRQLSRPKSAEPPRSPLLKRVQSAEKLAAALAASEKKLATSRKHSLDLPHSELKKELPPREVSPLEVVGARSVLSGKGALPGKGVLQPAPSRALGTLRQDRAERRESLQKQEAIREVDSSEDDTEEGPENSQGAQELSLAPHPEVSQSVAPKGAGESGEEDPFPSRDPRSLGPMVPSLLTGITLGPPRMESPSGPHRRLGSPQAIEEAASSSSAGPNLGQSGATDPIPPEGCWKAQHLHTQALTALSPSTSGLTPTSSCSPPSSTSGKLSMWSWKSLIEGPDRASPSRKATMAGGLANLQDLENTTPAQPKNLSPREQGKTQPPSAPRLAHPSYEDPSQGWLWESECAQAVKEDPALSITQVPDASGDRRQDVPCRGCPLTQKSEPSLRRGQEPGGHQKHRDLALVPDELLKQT
Procedure, shortened: as §1

| SMILES | Classification ([1]; PDZ MUPP-1, PDZ Domain 10) | Classification ([1]; PDZ MUPP-1, PDZ Domain 13) | Classification ([2]; PDZ KIAA1634, PDZ Domain 1) | Classification ([2]; PDZ KIAA1634, PDZ Domain 2) | Classification ([3]; PDZ KIAA0807(S), PDZ Domain 1) | Classification ([3]; PDZ KIAA807, PDZ Domain not given) | Classification ([1]; PDZ MUPP-1, PDZ Domain 10, PL peptide 10 uM) | Classification ([1]; PDZ MUPP-1, PDZ Domain 11, Protein Optimal Conc 5) | Classification ([2]; PDZ KIAA1634, PDZ Domain 1, PL peptide 10 uM) | Classification ([2]; PDZ KIAA1634, PDZ Domain 2, Protein Optimal Conc 5) | Classification ([2]; PDZ KIAA1634, PDZ Domain 4, Protein Optimal Conc 5) | Classification ([3]; PDZ KIAA0807(S), PDZ Domain 1, Protein Optimal Conc 5) | Classification ([3]; PDZ KIAA807 (domain not given), PL peptide 10 uM) |
| --- | --- | --- | --- | --- | --- | --- | --- | --- | --- | --- | --- | --- | --- |
| CC(C)C[C@H](NC(=O)[C@H](C)NC(=O)[C@H](CO)NC(=O)CNC(=O)[C@@H](NC(=O)CCCC[C@@H]1SC[C@@H]2NC(=O)N[C@@H]21)[C@@H](C)O)C(=O)N[C@@H](CCC(N)=O)C(=O)N[C@@H](C)C(=O)N[C@@H](Cc1c[nH]c2ccccc12)C(=O)N[C@@H](CCCNC(=N)N)C(=O)N[C@@H](Cc1c[nH]cn1)C(=O)N[C@H](C(=O)N[C@@H](CO)C(=O)N[C@@H](CCCNC(=N)N)C(=O)N[C@@H](CCC(N)=O)C(=O)N[C@@H](C)C(=O)N[C@H](C(=O)N[C@@H](CCC(=O)O)C(=O)N[C@@H](CO)C(=O)N[C@H](C(=O)N[C@H](C(=O)O)C(C)C)[C@@H](C)O)[C@@H](C)O)[C@@H](C)O [HPV E6 #66 (modified)] (Biotin-TGSALQAWRHTSRQATESTV-OH; C-terminus assumed) | 1 (A450 nm 0-1) | 3 (A450 nm 2-3) | 5 (A450 nm of 4 more than 2× repeated) | 1 (A450 nm 0-1) | 4 (A450 nm 3-4) | 2 (A450 nm 1-2) |  |  |  |  |  |  |  |
| CC[C@H](C)[C@H](NC(=O)[C@H](CCCCN)NC(=O)[C@@H](NC(=O)[C@H](CO)NC(=O)[C@@H]1CCCN1C(=O)[C@H](Cc1ccccc1)NC(=O)[C@@H](NC(=O)[C@@H](NC(=O)[C@H](CCCNC(=N)N)NC(=O)[C@H](CCC(=O)O)NC(=O)[C@H](CC(C)C)NC(=O)[C@H](CC(C)C)NC(=O)[C@H](CC(C)C)NC(=O)[C@@H](NC(=O)CNC(=O)[C@@H](NC(=O)CCCC[C@@H]1SC[C@@H]2NC(=O)N[C@@H]21)C(C)C)[C@@H](C)O)C(C)C)[C@@H](C)CC)C(C)C)C(=O)N[C@@H](C)C(=O)N[C@H](C(=O)N[C@@H](CC(C)C)C(=O)N[C@H](C(=O)O)C(C)C)[C@@H](C)O [Adenovirus E4 Type9] |  |  |  |  |  |  | 1 (A450 nm 0-1) | 5 (A450 nm of 4 more than 2× repeated) | 5 (A450 nm of 4 more than 2× repeated) | 5 (A450 nm of 4 more than 2× repeated) | 4 (A450 nm 3-4) | 3 (A450 nm 2-3) | 4 (A450 nm 3-4) |
